Values after ≈ are worked out from the molar mass of the structure shown. Counter-ions that a name gives are not always drawn. Like-named read-outs stand apart in the source and are kept apart here. Marks after values point to notes of the source that are not given here.
Assays:
E. coli ATCC 25922 = assay: MIC, wild-type E. coli ATCC 25922; format: cell-based, Escherichia coli; settings: for increase in MIC values against the wild-type E. coli strain compared to the permeable strain: E. coli^WT vs E. coli^P; for MIC: Escherichia coli
E. coli SKM18 = assay: microbe, parasite or virus in culture; format: cell-based, Escherichia coli; settings: for MIC E. coli^R1: E. coli SKM18
[1] = tested on: Acinetobacter baumannii ATCC BAA-747; assay: MIC, wild-type A. baumannii; format: cell-based; settings: A. baumannii ATCC BAA-747
A. baumannii MMX2240 = assay: MIC, fluoroquinolone resistant A. baumannii; format: cell-based, Acinetobacter baumannii
[2] = tested on: Klebsiella pneumoniae ATCC 35657; assay: MIC, wild-type K. pneumoniae; format: cell-based; settings: K. pneumoniae ATCC 35657
[3] = tested on: panel of 12 E. coli isolates; design: method as in PMID 29032026; settings: abbreviated panel of E. coli strains; cited from earlier work
E. coli^WT (ATCC 25922) [4] = tested on: E. coli^WT (ATCC 25922); design: method as in PMID 29032026; settings: cited from earlier work
E. coli^WT = assay: Time-kill kinetics, E. coli
A. baumannii^WT = assay: Time-kill kinetics, A. baumannii
E. coli DNA gyrase = E. coli DNA gyrase (Escherichia coli, UniProt P0AES4+P0AES6); assay: biochemical
human topoisomerase II = human topoisomerase II (Homo sapiens, UniProt P11388); assay: Human topoisomerase II decatenation assay; format: biochemical; settings: Supplemental Table 1; read-out: Human Topo II IC50
Sequence of human topoisomerase II (P11388 whole entry): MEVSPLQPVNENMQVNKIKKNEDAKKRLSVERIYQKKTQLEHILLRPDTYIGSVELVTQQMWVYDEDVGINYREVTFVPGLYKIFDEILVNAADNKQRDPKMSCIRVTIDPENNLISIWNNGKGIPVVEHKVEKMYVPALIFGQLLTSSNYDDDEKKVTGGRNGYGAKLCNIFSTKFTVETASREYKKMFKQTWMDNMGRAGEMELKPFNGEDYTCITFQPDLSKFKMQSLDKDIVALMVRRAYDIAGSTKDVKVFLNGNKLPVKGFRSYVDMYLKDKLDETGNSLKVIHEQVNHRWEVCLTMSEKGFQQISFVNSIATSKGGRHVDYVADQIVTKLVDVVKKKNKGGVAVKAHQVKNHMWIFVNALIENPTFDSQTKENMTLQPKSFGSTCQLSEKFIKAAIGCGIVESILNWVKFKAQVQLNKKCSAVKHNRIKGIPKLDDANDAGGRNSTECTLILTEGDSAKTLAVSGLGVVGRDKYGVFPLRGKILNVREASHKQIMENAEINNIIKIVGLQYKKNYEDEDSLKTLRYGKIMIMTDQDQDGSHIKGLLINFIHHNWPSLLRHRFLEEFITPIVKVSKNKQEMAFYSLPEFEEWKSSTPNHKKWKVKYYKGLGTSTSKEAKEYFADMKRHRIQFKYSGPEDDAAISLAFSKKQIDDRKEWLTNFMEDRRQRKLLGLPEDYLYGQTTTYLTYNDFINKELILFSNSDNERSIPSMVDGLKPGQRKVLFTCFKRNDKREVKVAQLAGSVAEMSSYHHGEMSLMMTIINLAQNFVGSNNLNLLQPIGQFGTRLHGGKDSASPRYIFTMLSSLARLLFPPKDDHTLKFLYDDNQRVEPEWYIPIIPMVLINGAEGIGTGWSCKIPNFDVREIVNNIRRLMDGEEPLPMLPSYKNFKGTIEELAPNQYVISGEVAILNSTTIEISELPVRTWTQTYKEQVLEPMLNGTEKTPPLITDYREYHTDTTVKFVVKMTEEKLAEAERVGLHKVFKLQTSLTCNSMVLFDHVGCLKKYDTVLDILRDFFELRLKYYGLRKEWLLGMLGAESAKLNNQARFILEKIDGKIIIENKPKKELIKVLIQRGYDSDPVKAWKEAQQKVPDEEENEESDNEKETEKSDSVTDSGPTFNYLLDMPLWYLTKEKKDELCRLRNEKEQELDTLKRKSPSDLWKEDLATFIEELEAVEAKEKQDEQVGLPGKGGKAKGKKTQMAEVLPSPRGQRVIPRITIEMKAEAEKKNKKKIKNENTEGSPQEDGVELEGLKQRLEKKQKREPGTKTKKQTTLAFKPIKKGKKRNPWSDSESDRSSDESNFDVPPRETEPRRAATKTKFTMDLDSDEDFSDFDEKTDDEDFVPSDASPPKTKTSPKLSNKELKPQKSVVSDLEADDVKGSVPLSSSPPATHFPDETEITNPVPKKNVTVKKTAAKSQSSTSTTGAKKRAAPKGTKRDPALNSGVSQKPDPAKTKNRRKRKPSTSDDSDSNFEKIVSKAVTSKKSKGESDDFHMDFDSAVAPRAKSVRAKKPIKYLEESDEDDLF

[5] = Pharmacokinetics in CD-1 mice; settings: CD-1, mouse, plasma, iv, 10 mg/kg
E. coli^WT (ATCC 25922) [6] = assay: Mouse septicemia model; format: in vivo, CD-1 mice; settings: 96 h; for responders at 20 mg/kg: Mus musculus, iv, read-out: survival
[7] = tested on: panel of 12 A. baumannii isolates; assay: Susceptibility testing, 12 A. baumannii isolates; format: cell-based, Acinetobacter baumannii
[8] = tested on: panel of 12 E. coli isolates; assay: Susceptibility testing, 12 E. coli isolates; format: cell-based, Escherichia coli
[9] = target: E. coli DNA gyrase^SD-LY (GyrA S83L, D87Y) (Escherichia coli, UniProt P0AES4+P0AES6, D87Y/S83L); format: biochemical; settings: IC50 ratio
E. coli 1609 = assay: MIC, wild-type E. coli 1609; format: cell-based; settings: Escherichia coli, read-out: MIC E. coli^WT2
E. coli SKM11 = format: cell-based, Escherichia coli
in vivo = settings: CD-1, mouse, iv, 3 mg/kg
[10] = ATCC25922, read-out: MIC E. coli^WT, E. coli ATCC 25922
[11] = E. coli enzymatic activity, DNA gyrase IC50

10-((sec-Butylamino)methyl)-4-hydroxy-9-methyl-2-oxo-1,2,5,6,7,9-hexahydropyrido[3′,2′:6,7]cyclohepta[1,2-f]indole-3-carboxylic Acid Hydrochloride [Compound 6n]
MIC E. coli^WT (E. coli ATCC 25922; E. coli ATCC 25922): 0.78 µg/mL
MIC E. coli^R1 (E. coli SKM18): 0.78 µg/mL
MIC A. bau^WT [1]: 0.78 µg/mL
MIC A. bau^R (A. baumannii MMX2240): 0.50 µg/mL
MIC K. pneu^WT [2]: 0.50 µg/mL

CCc1c(-c2ccc(N3C[C@@H]4[C@@H](N)[C@@H]4C3)cc2)[nH]c(=O)c(C(=O)O)c1O [Compound 1b]
MIC90 E. coli [3]: 8 µg/mL (≈ 22.5 µM)
efficacy in a murine septicemia model (E. coli^WT (ATCC 25922) [4]): demonstrated efficacy

CCc1c(-c2ccc3c(ccn3C)c2)[nH]c(=O)c(C(=O)O)c1O [Compound 2a, 5-Ethyl-4-hydroxy-6-(1-methyl-1H-indol-5-yl)-2-oxo-1,2-dihydropyridine-3-carboxylic Acid]
increase in MIC values against the wild-type E. coli strain compared to the permeable strain (E. coli ATCC 25922): greater than 25 fold

CCc1c(-c2ccc3c(c2)cc(C)n3C)[nH]c(=O)c(C(=O)O)c1O [Compound 2b, 6-(1,2-Dimethyl-1H-indol-5-yl)-5-ethyl-4-hydroxy-2-oxo-1,2-dihydropyridine-3-carboxylic Acid]
increase in MIC values against the wild-type E. coli strain compared to the permeable strain (E. coli ATCC 25922): greater than 25 fold

CCc1c(-c2ccc3c(c2)cc(CN2CCC2)n3C)[nH]c(=O)c(C(=O)O)c1O [Compound 2m, 6-(2-(Azetidin-1-ylmethyl)-1-methyl-1H-indol-5-yl)-5-ethyl-4-hydroxy-2-oxo-1,2-dihydropyridine-3-carboxylic Acid Hydrochloride]
mode of bacterial inhibition (time–kill kinetics) (E. coli^WT; E. coli^WT, several concentrations): concentration-dependent bactericidal activity
reduction in the number of CFUs (E. coli^WT; concentrations above the MIC, within ∼2 h): more than 3 log10 units
mode of bacterial inhibition (time–kill kinetics) (A. baumannii^WT; A. baumannii^WT, several concentrations): concentration-dependent bactericidal activity
reduction in the number of CFUs (A. baumannii^WT; above 2-fold of the MIC, within ∼2 h): ~2 log10 units

CNCc1cc2cc3c(cc2n1C)CCc1c-3[nH]c(=O)c(C(=O)O)c1O.Cl [Compound 5a]
MIC (E. coli ATCC 25922; [10]): 7.8 µg/mL
MIC (E. coli SKM18; Escherichia coli, SKM18, read-out: MIC E. coli^R1, E. coli SKM18): 7.8 µg/mL
IC50 (E. coli DNA gyrase; [11]): 900 nM

CCNCc1cc2cc3c(cc2n1C)CCCc1c-3[nH]c(=O)c(C(=O)O)c1O [Compound 6a, 10-((Ethylamino)methyl)-4-hydroxy-9-methyl-2-oxo-1,2,5,6,7,9-hexahydropyrido[3′,2′:6,7]cyclohepta[1,2-f]indole-3-carboxylic Acid Hydrochloride]
IC50 (E. coli DNA gyrase; E. coli DNA gyrase IC50, gyrase^WT): 560 nM
IC50 (E. coli DNA gyrase; [11]): 100 nM
IC50 (human topoisomerase II): > 100000 nM

CCNCc1cc2cc3c(cc2n1C)NCCc1c-3[nH]c(=O)c(C(=O)O)c1O [Compound 6g]
MIC (E. coli ATCC 25922; [10]): 7.8 to 31.3 µg/mL (≈ 20.4 to 81.8 µM)

CC(C)NCc1cc2cc3c(cc2n1C)CCCc1c-3[nH]c(=O)c(C(=O)O)c1O [Compound 6i, 4-Hydroxy-10-((isopropylamino)methyl)-9-methyl-2-oxo-1,2,5,6,7,9-hexahydropyrido[3′,2′:6,7]cyclohepta[1,2-f]indole-3-carboxylic Acid Hydrochloride]
IC50 (E. coli DNA gyrase; E. coli DNA gyrase IC50): 2700 nM
IC50 (human topoisomerase II): > 100000 nM
AUC(0-t) at 24 h ([5]; pH 8): 1810 ng·h/mL
clearance ([5]; pH 8): 64 mL/min/kg

CC(C)NCc1cc2cc3c(cc2n1C)NCCc1c-3[nH]c(=O)c(C(=O)O)c1O [Compound 6l]
MIC (E. coli ATCC 25922; [10]): 7.8 to 31.3 µg/mL (≈ 19.7 to 79 µM)

Cn1c(CNC2(C)CCC2)cc2cc3c(cc21)CCCc1c-3[nH]c(=O)c(C(=O)O)c1O [Compound 6p, 4-Hydroxy-9-methyl-10-(((1-methylcyclobutyl)amino)methyl)-2-oxo-1,2,5,6,7,9-hexahydropyrido[3′,2′:6,7]cyclohepta[1,2-f]indole-3-carboxylic Acid Hydrochloride]
responders at 20 mg/kg (E. coli^WT (ATCC 25922) [6]): 0%
AUC(0-t) at 24 h ([5]; pH 4): 4580 ng·h/mL
clearance ([5]; pH 4): 35 mL/min/kg

Cn1c(CNC2(C)CCC2)cc2cc3c(cc21)OCCc1c-3[nH]c(=O)c(C(=O)O)c1O [Compound 6q, 4-Hydroxy-9-methyl-10-(((1-methylcyclobutyl)amino)methyl)-2-oxo-2,5,6,9-tetrahydro-1H-pyrido[2′,3′:4,5]oxepino[3,2-f]indole-3-carboxylic Acid Hydrochloride]
IC50 (E. coli DNA gyrase; E. coli DNA gyrase IC50): 730 nM
IC50 (human topoisomerase II): > 100000 nM
MIC ([7]; Acinetobacter baumannii, read-out: A. baumannii MIC range): 0.06 to 16 µg/mL
AUC(0-t) at 24 h ([5]; pH 8): 4420 ng·h/mL
clearance ([5]; pH 8): 37 mL/min/kg

CN(C)Cc1cc2cc3c(cc2n1C)CCCc1c-3[nH]c(=O)c(C(=O)O)c1O [Compound 6r, 10-((Dimethylamino)methyl)-4-hydroxy-9-methyl-2-oxo-1,2,5,6,7,9-hexahydropyrido[3′,2′:6,7]cyclohepta[1,2-f]indole-3-carboxylic Acid Hydrochloride]
IC50 (E. coli DNA gyrase; E. coli DNA gyrase IC50): 410 nM
IC50 (human topoisomerase II): > 100000 nM
responders at 20 mg/kg (E. coli^WT (ATCC 25922) [6]): 100%
AUC(0-t) at 24 h ([5]; pH 8): 3520 ng·h/mL
clearance ([5]; pH 8): 47 mL/min/kg

CN(C)Cc1cc2cc3c(cc2n1C)OCCc1c-3[nH]c(=O)c(C(=O)O)c1O [Compound 6s, 10-((Dimethylamino)methyl)-4-hydroxy-9-methyl-2-oxo-2,5,6,9-tetrahydro-1H-pyrido[2′,3′:4,5]oxepino[3,2-f]indole-3-carboxylic Acid Hydrochloride]
IC50 (E. coli DNA gyrase; E. coli DNA gyrase IC50): 490 nM
IC50 (human topoisomerase II): > 100000 nM
responders at 20 mg/kg (E. coli^WT (ATCC 25922) [6]): 100%
AUC(0-t) at 24 h ([5]; pH 4): 2930 ng·h/mL
clearance ([5]; pH 4): 53 mL/min/kg

Cn1c(CN2CCCC2)cc2cc3c(cc21)CCCc1c-3[nH]c(=O)c(C(=O)O)c1O [Compound 6v, 4-Hydroxy-9-methyl-2-oxo-10-(pyrrolidin-1-ylmethyl)-1,2,5,6,7,9-hexahydropyrido[3′,2′:6,7]cyclohepta[1,2-f]indole-3-carboxylic Acid Hydrochloride]
IC50 (E. coli DNA gyrase; E. coli DNA gyrase IC50): 210 nM
IC50 (human topoisomerase II): > 100000 nM
E. coli MIC90 ([8]; 12 strains, Mueller Hinton II broth): 1 µg/mL
MIC90 ([8]; Escherichia coli, read-out: E. coli MIC90, 12 strains, Mueller Hinton II broth): 0.5 to 1 µg/mL
MIC90 ([7]; Acinetobacter baumannii, read-out: A. baumannii MIC90, 12 strains, Mueller Hinton II broth): 8 to 16 µg/mL
responders at 20 mg/kg (E. coli^WT (ATCC 25922) [6]): 100%
AUC(0-t) at 24 h ([5]; pH 8): 4050 ng·h/mL
clearance ([5]; pH 8): 41 mL/min/kg

Cn1c(CN2CCCC2)cc2cc3c(cc21)OCCc1c-3[nH]c(=O)c(C(=O)O)c1O [Compound 6w, 4-Hydroxy-9-methyl-2-oxo-10-(pyrrolidin-1-ylmethyl)-2,5,6,9-tetrahydro-1H-pyrido[2′,3′:4,5]oxepino[3,2-f]indole-3-carboxylic Acid Hydrochloride]
IC50 (E. coli DNA gyrase; E. coli DNA gyrase IC50): 280 nM
IC50 (human topoisomerase II): > 100000 nM

CO/N=C(\C(=O)N[C@@H]1C(=O)N2C(C(=O)[O-])=C(C[N+]3(C)CCCC3)CS[C@H]12)c1csc(N)n1 [cefepime, reference compound]
MIC E. coli^WT (E. coli ATCC 25922; E. coli ATCC 25922): 0.05 µg/mL (≈ 0.104 µM)
MIC E. coli^R1 (E. coli SKM18): 0.05 µg/mL (≈ 0.104 µM)
MIC A. bau^WT [1]: 0.78 µg/mL (≈ 1.62 µM)
MIC A. bau^R (A. baumannii MMX2240): 0.78 µg/mL (≈ 1.62 µM)
MIC K. pneu^WT [2]: 0.02 µg/mL (≈ 0.0416 µM)

O=C(O)c1cn(C2CC2)c2cc(N3CCNCC3)c(F)cc2c1=O [ciprofloxacin]
MIC (E. coli ATCC 25922; ATCC25922, E. coli ATCC 25922, read-out: MIC E. coli^WT): 0.012 µg/mL (≈ 0.0362 µM)
MIC E. coli^R1 (E. coli SKM18): > 250 µg/mL
increase in MIC against E. coli^R1 (E. coli SKM18; additional Topo IV mutations, vs E. coli^R3): ~250 fold
reduction in activity against DNA gyrase^SD-LY compared to DNA gyrase^WT [9]: greater than 13 fold
MIC (E. coli 1609): 0.024 µg/mL (≈ 0.0724 µM)
increase in MIC against E. coli^R3 (E. coli SKM11): 32 fold

C[C@H]1COc2c(N3CCN(C)CC3)c(F)cc3c(=O)c(C(=O)O)cn1c23.C[C@H]1COc2c(N3CCN(C)CC3)c(F)cc3c(=O)c(C(=O)O)cn1c23.O [levofloxacin, reference compound]
E. coli MIC range ([8]; 12 strains): 0.015 to 32 µg/mL
A. baumannii MIC range ([7]; 12 strains): 0.06 to 64 µg/mL

COc1c(N2C[C@@H]3CCCN[C@@H]3C2)c(F)cc2c(=O)c(C(=O)O)cn(C3CC3)c12 [moxifloxacin, reference compound]
survival (E. coli^WT (ATCC 25922) [6]; neutropenic mice, E. coli^WT 100 × LD50, 3 mg/kg at 1 and 5 h postinfection (b.i.d.)): 100 ^n %
AUC(0-t) at 24 h (in vivo): 640 ng·h/mL

CN(C)c1cc(NC(=O)CNC(C)(C)C)c(O)c2c1C[C@H]1C[C@H]3[C@H](N(C)C)C(O)=C(C(N)=O)C(=O)[C@@]3(O)C(O)=C1C2=O [tigecycline, reference compound]
MIC E. coli^WT (E. coli ATCC 25922; E. coli ATCC 25922): 0.13 µg/mL (≈ 0.222 µM)
MIC E. coli^R1 (E. coli SKM18): 0.25 µg/mL (≈ 0.427 µM)
MIC A. bau^WT [1]: 0.78 µg/mL (≈ 1.33 µM)
MIC A. bau^R (A. baumannii MMX2240): 0.78 µg/mL (≈ 1.33 µM)
MIC K. pneu^WT [2]: 0.13 µg/mL (≈ 0.222 µM)

Reference: PMC5991783, “Discovery and Optimization of Indolyl-Containing 4-Hydroxy-2-Pyridone Type II DNA Topoisomerase Inhibitors Active against Multidrug Resistant Gram-negative Bacteria” (Journal of Medicinal Chemistry, 2018)
